Experimental findings from patent US9260439B2, “Dihydropyrrolopyrimidine derivatives” (PFIZER INC., priority 2014, dated 2016) are described below.

For the assay, the target named is truncated PI3Kα (p110α/iSH2 p85α) (Homo sapiens (Human), UniProt P42336). As to the kind of experiment: PI3KA_Act fluorescence polarization kinase assay (Ki). The assay is classed as biochemical. As to conditions: 1 mM ATP. In a few lines: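 Ki values result from fitting fluorescence polarization signals to the Morrison equation for tight-binding competitive inhibitors. The detector was GST-Grp1 PH domain with TAMRA-PIP3, read after a 30 min room-temperature reaction of 0.5 nM truncated PI3Kα and 30 μM PIP2 at pH 7.4 in HEPES/NaCl/MgCl2/DTT/CHAPS buffer. Compounds were tested as 12-point 3-fold dilutions from 3 μM.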
truncated PI3Kα (p110α/iSH2 p85α), sequence (P42336 whole entry, the tested form may be a part): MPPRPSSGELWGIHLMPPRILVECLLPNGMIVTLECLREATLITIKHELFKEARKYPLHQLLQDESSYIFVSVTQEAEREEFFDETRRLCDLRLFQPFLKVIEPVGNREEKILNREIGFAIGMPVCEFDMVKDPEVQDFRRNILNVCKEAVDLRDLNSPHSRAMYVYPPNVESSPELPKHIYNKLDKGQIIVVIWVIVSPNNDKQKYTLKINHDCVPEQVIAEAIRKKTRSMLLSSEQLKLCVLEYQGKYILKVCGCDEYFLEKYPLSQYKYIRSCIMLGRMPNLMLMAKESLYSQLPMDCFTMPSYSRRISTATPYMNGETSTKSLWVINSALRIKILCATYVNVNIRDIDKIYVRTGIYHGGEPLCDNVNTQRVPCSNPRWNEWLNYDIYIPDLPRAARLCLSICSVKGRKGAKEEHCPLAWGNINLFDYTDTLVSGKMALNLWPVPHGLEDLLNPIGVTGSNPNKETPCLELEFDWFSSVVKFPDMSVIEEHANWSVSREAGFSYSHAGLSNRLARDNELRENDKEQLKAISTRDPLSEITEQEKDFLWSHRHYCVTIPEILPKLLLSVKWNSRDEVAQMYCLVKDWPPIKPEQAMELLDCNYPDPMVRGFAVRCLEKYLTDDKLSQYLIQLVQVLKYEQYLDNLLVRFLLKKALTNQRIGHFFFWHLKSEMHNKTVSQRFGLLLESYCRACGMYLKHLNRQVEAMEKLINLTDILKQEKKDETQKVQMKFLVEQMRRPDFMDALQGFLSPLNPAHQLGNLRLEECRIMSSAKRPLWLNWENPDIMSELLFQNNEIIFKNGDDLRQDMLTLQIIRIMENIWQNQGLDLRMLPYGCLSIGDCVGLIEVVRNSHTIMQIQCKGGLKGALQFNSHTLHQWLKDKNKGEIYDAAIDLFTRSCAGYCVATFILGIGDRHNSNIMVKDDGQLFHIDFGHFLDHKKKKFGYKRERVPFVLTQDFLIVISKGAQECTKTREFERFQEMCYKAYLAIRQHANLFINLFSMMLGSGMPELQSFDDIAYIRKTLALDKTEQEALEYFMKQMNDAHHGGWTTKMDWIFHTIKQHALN
A general note: In fluorescence polarisation assays a small probe gives low polarisation when free and higher when bound to something large.

Some results are limits rather than exact numbers.

For the compound `CC(C)(C)OC(=O)N1CC(N2CCc3c(-c4cnc(N)nc4)nc(N4CCOCC4)nc32)C1` [Example 248, tert-butyl 3-[4-(2-aminopyrimidin-5-yl)-2-(morpholin-4-yl)-5,6-dihydro-7H-pyrrolo[2,3-d]pyrimidin-7-yl]azetidine-1-carboxylate], the “PI3KA_Act Ki” value is 0.212 nM. Under `CC(C)(C)OC(=O)N1CC(C)(N2CCc3c(-c4cnc(N)nc4)nc(N4CCOCC4)nc32)C1` [Example 249, tert-butyl 3-[4-(2-aminopyrimidin-5-yl)-2-(morpholin-4-yl)-5,6-dihydro-7H-pyrrolo[2,3-d]pyrimidin-7-yl]-3-methylazetidine-1-carboxylate] stands 0.019 nM; under `CNC(=O)N1CC(C)(N2CCc3c(-c4cnc(N)nc4)nc(N4CCOCC4)nc32)C1` [Example 250, 3-[4-(2-aminopyrimidin-5-yl)-2-(morpholin-4-yl)-5,6-dihydro-7H-pyrrolo[2,3-d]pyrimidin-7-yl]-N,3-dimethylazetidine-1-carboxamide], 0.120 nM.

Regarding `Nc1ncc(-c2nc(N3CCOCC3)nc3c2CCN3C2CN(S(=O)(=O)C3CCC3)C2)cn1` [Example 251, 5-{7-[1-(cyclobutylsulfonyl)azetidin-3-yl]-2-(morpholin-4-yl)-6,7-dihydro-5H-pyrrolo[2,3-d]pyrimidin-4-yl}pyrimidin-2-amine], the “PI3KA_Act Ki” value is 1.652 nM. Then `Nc1ncc(-c2nc(N3CCOCC3)nc3c2CCN3C2CN(S(=O)(=O)N3CCC3)C2)cn1` [Example 252, 5-{7-[1-(azetidin-1-ylsulfonyl)azetidin-3-yl]-2-(morpholin-4-yl)-6,7-dihydro-5H-pyrrolo[2,3-d]pyrimidin-4-yl}pyrimidin-2-amine], with 0.158 nM; and `C[C@]1(N2CCc3c(-c4cnc(N)nc4)nc(N4CCOCC4)nc32)CCNC1.Cl` [Example 253, 5-{7-[(3S)-3-methylpyrrolidin-3-yl]-2-(morpholin-4-yl)-6,7-dihydro-5H-pyrrolo[2,3-d]pyrimidin-4-yl}pyrimidin-2-amine hydrochloride], with 0.160 nM.

For `Cl.Nc1ncc(-c2nc(N3CCOCC3)nc3c2CCN3[C@@H]2CNC[C@@H]2F)cn1` [Example 254, 5-{7-[(3R,4S)-4-fluoropyrrolidin-3-yl]-2-(morpholin-4-yl)-6,7-dihydro-5H-pyrrolo[2,3-d]pyrimidin-4-yl}pyrimidin-2-amine hydrochloride], the “PI3KA_Act Ki” value is 1.893 nM. In the case of `Cl.Nc1ncc(-c2nc(N3CCOCC3)nc3c2CCN3[C@H]2CNC[C@H]2F)cn1` [Example 255, 5-{7-[(3S,4R)-4-fluoropyrrolidin-3-yl]-2-(morpholin-4-yl)-6,7-dihydro-5H-pyrrolo[2,3-d]pyrimidin-4-yl}pyrimidin-2-amine hydrochloride], the “PI3KA_Act Ki” value is listed as 1.168 nM. Then `CC[C@@]1(N2CCc3c(-c4cnc(N)nc4)nc(N4CCOCC4)nc32)CCNC1.Cl` [Example 256, 5-{7-[(3R)-3-ethylpyrrolidin-3-yl]-2-(morpholin-4-yl)-6,7-dihydro-5H-pyrrolo[2,3-d]pyrimidin-4-yl}pyrimidin-2-amine hydrochloride], with 1.131 nM.

Regarding `CC[C@]1(N2CCc3c(-c4cnc(N)nc4)nc(N4CCOCC4)nc32)CCNC1.Cl` [Example 257, 5-{7-[(3S)-3-ethylpyrrolidin-3-yl)-2-(morpholin-4-yl)-6,7-dihydro-5H-pyrrolo[2,3-d]pyrimidin-4-yl}pyrimidin-2-amine hydrochloride], the “PI3KA_Act Ki” value worked out at 0.955 nM. With `C[C@]1(N2CCc3c(-c4cnc(N)nc4)nc(N4CCOCC4)nc32)CCNC1=O` [Example 258, (3S)-3-[4-(2-aminopyrimidin-5-yl)-2-(morpholin-4-yl)-5,6-dihydro-7H-pyrrolo[2,3-d]pyrimidin-7-yl]-3-methylpyrrolidin-2-one], the “PI3KA_Act Ki” value came to 31.787 nM.

With `CC(=O)N1CC[C@@](C)(N2CCc3c(-c4cnc(N)nc4)nc(N4CCOCC4)nc32)C1` [Example 259, 1-{(3R)-3-[4-(2-aminopyrimidin-5-yl)-2-(morpholin-4-yl)-5,6-dihydro-7H-pyrrolo[2,3-d]pyrimidin-7-yl]-3-methylpyrrolidin-1-yl}ethanone], the “PI3KA_Act Ki” value is listed as 0.139 nM. Regarding `CCC(=O)N1CC[C@](C)(N2CCc3c(-c4cnc(N)nc4)nc(N4CCOCC4)nc32)C1` [Example 260, 1-{(3S)-3-[4-(2-aminopyrimidin-5-yl)-2-(morpholin-4-yl)-5,6-dihydro-7H-pyrrolo[2,3-d]pyrimidin-7-yl]-3-methylpyrrolidin-1-yl}propan-1-one], the “PI3KA_Act Ki” value was 0.030 nM. Then `CCC(=O)N1CC[C@@](C)(N2CCc3c(-c4cnc(N)nc4)nc(N4CCOCC4)nc32)C1` [Example 261, 1-{(3R)-3-[4-(2-aminopyrimidin-5-yl)-2-(morpholin-4-yl)-5,6-dihydro-7H-pyrrolo[2,3-d]pyrimidin-7-yl]-3-methylpyrrolidin-1-yl}propan-1-one], with 0.143 nM; and `CC(C)C(=O)N1CC[C@](C)(N2CCc3c(-c4cnc(N)nc4)nc(N4CCOCC4)nc32)C1` [Example 262, 1-{(3S)-3-[4-(2-aminopyrimidin-5-yl)-2-(morpholin-4-yl)-5,6-dihydro-7H-pyrrolo[2,3-d]pyrimidin-7-yl]-3-methylpyrrolidin-1-yl}-2-methylpropan-1-one], with below 0.018 nM. With `CC(C)C(=O)N1CC[C@@](C)(N2CCc3c(-c4cnc(N)nc4)nc(N4CCOCC4)nc32)C1` [Example 263, 1-{(3R)-3-[4-(2-aminopyrimidin-5-yl)-2-(morpholin-4-yl)-5,6-dihydro-7H-pyrrolo[2,3-d]pyrimidin-7-yl]-3-methylpyrrolidin-1-yl}-2-methylpropan-1-one], the “PI3KA_Act Ki” value came to 0.122 nM. Under `CC(C)(C)C(=O)N1CC[C@](C)(N2CCc3c(-c4cnc(N)nc4)nc(N4CCOCC4)nc32)C1` [Example 264, 1-{(3S)-3-[4-(2-aminopyrimidin-5-yl)-2-(morpholin-4-yl)-5,6-dihydro-7H-pyrrolo[2,3-d]pyrimidin-7-yl]-3-methylpyrrolidin-1-yl}-2,2-dimethylpropan-1-one] stands below 0.018 nM. Under `C[C@]1(N2CCc3c(-c4cnc(N)nc4)nc(N4CCOCC4)nc32)CCN(C(=O)CC#N)C1` [Example 265, 3-{(3S)-3-[4-(2-aminopyrimidin-5-yl)-2-(morpholin-4-yl)-5,6-dihydro-7H-pyrrolo[2,3-d]pyrimidin-7-yl]-3-methylpyrrolidin-1-yl}-3-oxopropanenitrile] stands 0.048 nM. Under `C[C@@]1(N2CCc3c(-c4cnc(N)nc4)nc(N4CCOCC4)nc32)CCN(C(=O)CC#N)C1` [Example 266, 3-{(3R)-3-[4-(2-aminopyrimidin-5-yl)-2-(morpholin-4-yl)-5,6-dihydro-7H-pyrrolo[2,3-d]pyrimidin-7-yl]-3-methylpyrrolidin-1-yl}-3-oxopropanenitrile] stands 0.139 nM; under `C[C@@H](O)C(=O)N1CC[C@](C)(N2CCc3c(-c4cnc(N)nc4)nc(N4CCOCC4)nc32)C1` [Example 267, (2R)-1-{(3S)-3-[4-(2-aminopyrimidin-5-yl)-2-(morpholin-4-yl)-5,6-dihydro-7H-pyrrolo[2,3-d]pyrimidin-7-yl]-3-methylpyrrolidin-1-yl}-2-hydroxypropan-1-one], 0.041 nM. Turning to `C[C@H](O)C(=O)N1CC[C@](C)(N2CCc3c(-c4cnc(N)nc4)nc(N4CCOCC4)nc32)C1` [Example 268, (2S)-1-{(3S)-3-[4-(2-aminopyrimidin-5-yl)-2-(morpholin-4-yl)-5,6-dihydro-7H-pyrrolo[2,3-d]pyrimidin-7-yl]-3-methylpyrrolidin-1-yl}-2-hydroxypropan-1-one], the “PI3KA_Act Ki” value is on record as 0.100 nM.

With `C[C@@H](O)C(=O)N1CC[C@@](C)(N2CCc3c(-c4cnc(N)nc4)nc(N4CCOCC4)nc32)C1` [Example 269, (2R)-1-{(3R)-3-[4-(2-aminopyrimidin-5-yl)-2-(morpholin-4-yl)-5,6-dihydro-7H-pyrrolo[2,3-d]pyrimidin-7-yl]-3-methylpyrrolidin-1-yl}-2-hydroxypropan-1-one], the “PI3KA_Act Ki” value is on record as 0.222 nM. On to `C[C@H](O)C(=O)N1CC[C@@](C)(N2CCc3c(-c4cnc(N)nc4)nc(N4CCOCC4)nc32)C1` [Example 270, (2S)-1-{(3R)-3-[4-(2-aminopyrimidin-5-yl)-2-(morpholin-4-yl)-5,6-dihydro-7H-pyrrolo[2,3-d]pyrimidin-7-yl]-3-methylpyrrolidin-1-yl}-2-hydroxypropan-1-one], for which the “PI3KA_Act Ki” value stood at 0.074 nM. Under `CC(C)[C@@H](O)C(=O)N1CC[C@](C)(N2CCc3c(-c4cnc(N)nc4)nc(N4CCOCC4)nc32)C1` [Example 271, (2R)-1-{(3S)-3-[4-(2-aminopyrimidin-5-yl)-2-(morpholin-4-yl)-5,6-dihydro-7H-pyrrolo[2,3-d]pyrimidin-7-yl]-3-methylpyrrolidin-1-yl}-2-hydroxy-3-methylbutan-1-one] stands 0.016 nM. Then `CC(C)[C@H](O)C(=O)N1CC[C@](C)(N2CCc3c(-c4cnc(N)nc4)nc(N4CCOCC4)nc32)C1` [Example 272, (2S)-1-{(3S)-3-[4-(2-aminopyrimidin-5-yl)-2-(morpholin-4-yl)-5,6-dihydro-7H-pyrrolo[2,3-d]pyrimidin-7-yl]-3-methylpyrrolidin-1-yl}-2-hydroxy-3-methylbutan-1-one], with 0.022 nM; and `CC(C)(O)C(=O)N1CC[C@](C)(N2CCc3c(-c4cnc(N)nc4)nc(N4CCOCC4)nc32)C1` [Example 275, 1-{(3S)-3-[4-(2-aminopyrimidin-5-yl)-2-(morpholin-4-yl)-5,6-dihydro-7H-pyrrolo[2,3-d]pyrimidin-7-yl]-3-methylpyrrolidin-1-yl}-2-hydroxy-2-methylpropan-1-one], with 0.030 nM.
